≈ marks a conversion by molar mass, not a printed value.
Columns and labels:
Type in all cases: functional
Candida albicans [1] = experiment: Antifungal activity against Candida albicans SC5314 by NCCLS protocol based broth microdilution assay
Aspergillus fumigatus = experiment: Antifungal activity against Aspergillus fumigatus 7544 by NCCLS protocol based broth microdilution assay
Cryptococcus neoformans = experiment: Antifungal activity against Cryptococcus neoformans 32605 by NCCLS protocol based broth microdilution assay
Nannizzia gypsea = experiment: Antifungal activity against Microsporum gypseum CMCC by NCCLS protocol based broth microdilution assay
Candida albicans [2] = experiment: Antifungal activity against Candida albicans Y0109 by NCCLS protocol based broth microdilution assay
Nakaseomyces glabratus = experiment: Antifungal activity against Candida glabrata 537 by NCCLS protocol based broth microdilution assay
Candida parapsilosis = experiment: Antifungal activity against Candida parapsilosis 22019 by NCCLS protocol based broth microdilution assay; conditions: Lodderomyces parapsilosis
Candida albicans [3] = experiment: Antifungal activity against fluconazole-resistant Candida albicans isolate 103 by NCCLS protocol based broth microdilution method
Candida albicans [4] = experiment: Antifungal activity against fluconazole-resistant Candida albicans isolate 100 by NCCLS protocol based broth microdilution method

Row | Structure (SMILES) | MIC (Candida albicans [1]) [µg/mL] | MIC (Aspergillus fumigatus) [µg/mL] | MIC (Cryptococcus neoformans) [µg/mL] | MIC (Nannizzia gypsea) [µg/mL] | MIC (Candida albicans [2]) [µg/mL] | MIC (Nakaseomyces glabratus) [µg/mL] | MIC (Candida parapsilosis) [µg/mL] | MIC (Candida albicans [3]) [µg/mL] | MIC (Candida albicans [4]) [µg/mL]
1 | C[C@@H](n1nnc2ccc(Br)cc2c1=O)[C@](O)(Cn1cncn1)c1ccc(F)cc1F | 0.125 (≈ 0.262 µM) | > 64 | 2 (≈ 4.19 µM) | – | – | – | – | – | –
2 | C[C@@H](n1nnc2cc(C(F)(F)F)ccc2c1=O)[C@](O)(Cn1cncn1)c1ccc(F)cc1F | 0.0156 (≈ 0.0334 µM) | 4 (≈ 8.58 µM) | 0.125 (≈ 0.268 µM) | 2 (≈ 4.29 µM) | 0.0156 (≈ 0.0334 µM) | 0.0313 (≈ 0.0671 µM) | 0.0313 (≈ 0.0671 µM) | – | –
3 | C[C@@H](n1nnc2cc(F)ccc2c1=O)[C@](O)(Cn1cncn1)c1ccc(F)cc1F | 0.0156 (≈ 0.0375 µM) | 1 (≈ 2.4 µM) | 0.25 (≈ 0.6 µM) | 2 (≈ 4.8 µM) | 0.0156 (≈ 0.0375 µM) | 0.0313 (≈ 0.0752 µM) | 0.0313 (≈ 0.0752 µM) | 64 (≈ 154 µM) | 32 (≈ 76.9 µM)
4 | Cc1ccc2c(=O)n([C@H](C)[C@](O)(Cn3cncn3)c3ccc(F)cc3F)nnc2c1 | 0.0156 (≈ 0.0378 µM) | 2 (≈ 4.85 µM) | 0.125 (≈ 0.303 µM) | 2 (≈ 4.85 µM) | 0.0156 (≈ 0.0378 µM) | 0.0156 (≈ 0.0378 µM) | 0.0313 (≈ 0.0759 µM) | – | –
5 | C[C@@H](n1nnc2c(F)cccc2c1=O)[C@](O)(Cn1cncn1)c1ccc(F)cc1F | 0.5 (≈ 1.2 µM) | > 64 | 0.0313 (≈ 0.0752 µM) | – | – | – | – | – | –
6 | C[C@@H](n1nnc2cc(I)ccc2c1=O)[C@](O)(Cn1cncn1)c1ccc(F)cc1F | 0.0156 (≈ 0.0298 µM) | 1 (≈ 1.91 µM) | 0.125 (≈ 0.238 µM) | 1 (≈ 1.91 µM) | 0.0156 (≈ 0.0298 µM) | 0.0313 (≈ 0.0597 µM) | 0.0625 (≈ 0.119 µM) | > 64 | > 64
7 | C[C@@H](n1nnc2cc([N+](=O)[O-])ccc2c1=O)[C@](O)(Cn1cncn1)c1ccc(F)cc1F | 0.0156 (≈ 0.0352 µM) | 4 (≈ 9.02 µM) | 0.25 (≈ 0.564 µM) | 4 (≈ 9.02 µM) | 0.0156 (≈ 0.0352 µM) | 0.0313 (≈ 0.0706 µM) | 0.0313 (≈ 0.0706 µM) | – | –
8 | C[C@@H](n1nnc2cc(F)c(F)cc2c1=O)[C@](O)(Cn1cncn1)c1ccc(F)cc1F | 0.0313 (≈ 0.0721 µM) | 2 (≈ 4.6 µM) | 0.5 (≈ 1.15 µM) | 1 (≈ 2.3 µM) | 0.0156 (≈ 0.0359 µM) | 0.0625 (≈ 0.144 µM) | 0.0313 (≈ 0.0721 µM) | – | –
9 | C[C@@H](n1nnc2ccc(Cl)cc2c1=O)[C@](O)(Cn1cncn1)c1ccc(F)cc1F | 0.0313 (≈ 0.0723 µM) | > 64 | 0.5 (≈ 1.16 µM) | – | – | – | – | – | –
10 | C[C@@H](n1nnc2ccc(I)cc2c1=O)[C@](O)(Cn1cncn1)c1ccc(F)cc1F | 0.125 (≈ 0.238 µM) | 32 (≈ 61 µM) | 0.5 (≈ 0.954 µM) | – | – | – | – | – | –
11 | C[C@@H](n1nnc2cc(Cl)ccc2c1=O)[C@](O)(Cn1cncn1)c1ccc(F)cc1F | 0.0156 (≈ 0.036 µM) | 0.25 (≈ 0.578 µM) | 0.0313 (≈ 0.0723 µM) | 0.25 (≈ 0.578 µM) | 0.0156 (≈ 0.036 µM) | 0.0156 (≈ 0.036 µM) | 0.0156 (≈ 0.036 µM) | 2 (≈ 4.62 µM) | 8 (≈ 18.5 µM)
12 | C[C@@H](n1nnc2c(ccc3ccccc32)c1=O)[C@](O)(Cn1cncn1)c1ccc(F)cc1F | 0.125 (≈ 0.279 µM) | > 64 | 0.5 (≈ 1.11 µM) | – | – | – | – | – | –
13 | C[C@@H](n1nnc2cccc(Br)c2c1=O)[C@](O)(Cn1cncn1)c1ccc(F)cc1F | 0.25 (≈ 0.524 µM) | 32 (≈ 67 µM) | 0.0625 (≈ 0.131 µM) | – | – | – | – | – | –
14 | C[C@@H](n1nnc2cccc(F)c2c1=O)[C@](O)(Cn1cncn1)c1ccc(F)cc1F | 0.5 (≈ 1.2 µM) | > 64 | 0.0625 (≈ 0.15 µM) | – | – | – | – | – | –
15 | C[C@@H](n1nnc2cc(Br)ccc2c1=O)[C@](O)(Cn1cncn1)c1ccc(F)cc1F | 0.0156 (≈ 0.0327 µM) | 0.5 (≈ 1.05 µM) | 0.0625 (≈ 0.131 µM) | 0.5 (≈ 1.05 µM) | 0.0156 (≈ 0.0327 µM) | 0.0156 (≈ 0.0327 µM) | 0.0313 (≈ 0.0656 µM) | 32 (≈ 67 µM) | 16 (≈ 33.5 µM)
16 | C[C@@H](n1nnc2ccccc2c1=O)[C@](O)(Cn1cncn1)c1ccc(F)cc1F | 0.0313 (≈ 0.0786 µM) | 4 (≈ 10 µM) | 0.25 (≈ 0.628 µM) | 2 (≈ 5.02 µM) | 0.0156 (≈ 0.0392 µM) | 0.0625 (≈ 0.157 µM) | 0.0313 (≈ 0.0786 µM) | – | –
17 | COc1ccc2c(=O)n([C@H](C)[C@](O)(Cn3cncn3)c3ccc(F)cc3F)nnc2c1 | 0.0156 (≈ 0.0364 µM) | 2 (≈ 4.67 µM) | 0.125 (≈ 0.292 µM) | 2 (≈ 4.67 µM) | 0.0156 (≈ 0.0364 µM) | 0.0156 (≈ 0.0364 µM) | 0.0313 (≈ 0.0731 µM) | – | –
18 | C[C@@H](n1nnc2ccc(F)cc2c1=O)[C@](O)(Cn1cncn1)c1ccc(F)cc1F | 0.0625 (≈ 0.15 µM) | 16 (≈ 38.4 µM) | 0.25 (≈ 0.6 µM) | – | – | – | – | – | –
19 | C[C@@H](n1nnc2c(Cl)cccc2c1=O)[C@](O)(Cn1cncn1)c1ccc(F)cc1F | 0.25 (≈ 0.578 µM) | > 64 | 0.25 (≈ 0.578 µM) | – | – | – | – | – | –
20 | C[C@@H](n1nnc2c(Br)cccc2c1=O)[C@](O)(Cn1cncn1)c1ccc(F)cc1F | 0.5 (≈ 1.05 µM) | > 64 | 0.25 (≈ 0.524 µM) | – | – | – | – | – | –
21 | C[C@@H](n1nnc2cccc(Cl)c2c1=O)[C@](O)(Cn1cncn1)c1ccc(F)cc1F | 0.25 (≈ 0.578 µM) | 32 (≈ 73.9 µM) | 0.0625 (≈ 0.144 µM) | – | – | – | – | – | –
22 | C[C@@H](n1nnc2ccc([N+](=O)[O-])cc2c1=O)[C@](O)(Cn1cncn1)c1ccc(F)cc1F | 0.5 (≈ 1.13 µM) | > 64 | 2 (≈ 4.51 µM) | – | – | – | – | – | –
23 | C[C@@H](n1nnc2cc(Cl)c(F)cc2c1=O)[C@](O)(Cn1cncn1)c1ccc(F)cc1F | 0.125 (≈ 0.277 µM) | 8 (≈ 17.7 µM) | 0.25 (≈ 0.555 µM) | – | – | – | – | – | –
24 | COc1ccc2nnn([C@H](C)[C@](O)(Cn3cncn3)c3ccc(F)cc3F)c(=O)c2c1 | 0.0625 (≈ 0.146 µM) | 32 (≈ 74.7 µM) | 1 (≈ 2.33 µM) | – | – | – | – | – | –
25 | Cc1ccc2nnn([C@H](C)[C@](O)(Cn3cncn3)c3ccc(F)cc3F)c(=O)c2c1 | 0.0625 (≈ 0.152 µM) | 16 (≈ 38.8 µM) | 0.25 (≈ 0.606 µM) | – | – | – | – | – | –
26 | C[C@@H](n1nnc2ccc(C(F)(F)F)cc2c1=O)[C@](O)(Cn1cncn1)c1ccc(F)cc1F | 0.25 (≈ 0.536 µM) | > 64 | 2 (≈ 4.29 µM) | – | – | – | – | – | –
27 | C[C@@H](n1cnc2cc(Cl)ccc2c1=O)[C@](O)(Cn1cncn1)c1ccc(F)cc1F [ALBACONAZOLE] | 0.0313 (≈ 0.0725 µM) | 0.25 (≈ 0.579 µM) | 0.0313 (≈ 0.0725 µM) | 1 (≈ 2.32 µM) | 0.0156 (≈ 0.0361 µM) | 0.0625 (≈ 0.145 µM) | 0.0156 (≈ 0.0361 µM) | 4 (≈ 9.26 µM) | 8 (≈ 18.5 µM)
28 | OC(Cn1cncn1)(Cn1cncn1)c1ccc(F)cc1F [FLUCONAZOLE] | 0.5 (≈ 1.63 µM) | > 64 | 0.5 (≈ 1.63 µM) | 32 (≈ 104 µM) | 0.5 (≈ 1.63 µM) | 2 (≈ 6.53 µM) | 1 (≈ 3.27 µM) | > 64 | > 64
29 | C[C@@H](c1ncncc1F)[C@](O)(Cn1cncn1)c1ccc(F)cc1F [VORICONAZOLE] | 0.0313 (≈ 0.0896 µM) | 0.25 (≈ 0.716 µM) | 0.0625 (≈ 0.179 µM) | 0.25 (≈ 0.716 µM) | 0.0156 (≈ 0.0447 µM) | 0.0156 (≈ 0.0447 µM) | 0.0156 (≈ 0.0447 µM) | > 64 | > 64

Source: ChEMBL document CHEMBL4610054, “Design, synthesis, and structure-activity relationship studies of novel triazole agents with strong antifungal activity against Aspergillus fumigatus” (2020)
